Numbers after ± are expanded uncertainties.
Test: xn = mol fraction of the nth substance listed
Conditions: Liquid; for mass density: Vibrating wire densiometer; for viscosity: Vibrating wire viscometry
[1] = 298.15 K, 10230 kPa, x1 = 0.1013
[2] = 298.15 K, 19830 kPa, x1 = 0.1013
[3] = 298.21 K, 20070 kPa, x1 = 0.2976
[4] = 298.21 K, 30320 kPa, x1 = 0.2976
[5] = 298.22 K, 10040 kPa, x1 = 0.2021
[6] = 298.22 K, 19950 kPa, x1 = 0.2021
[7] = 298.33 K, 13910 kPa, x1 = 0.3979
[8] = 298.33 K, 20030 kPa, x1 = 0.3979
[9] = 298.33 K, 30040 kPa, x1 = 0.3979
[10] = 323.22 K, 10080 kPa, x1 = 0.1013
[11] = 323.22 K, 20170 kPa, x1 = 0.1013
[12] = 323.22 K, 40020 kPa, x1 = 0.1013
[13] = 323.22 K, 60000 kPa, x1 = 0.1013
[14] = 323.22 K, 78560 kPa, x1 = 0.1013
[15] = 323.23 K, 20400 kPa, x1 = 0.2976
[16] = 323.23 K, 21720 kPa, x1 = 0.2976
[17] = 323.23 K, 21740 kPa, x1 = 0.2976
[18] = 323.23 K, 40220 kPa, x1 = 0.2976
[19] = 323.23 K, 60040 kPa, x1 = 0.2976
[20] = 323.23 K, 79910 kPa, x1 = 0.2976
[21] = 323.26 K, 14530 kPa, x1 = 0.3979
[22] = 323.26 K, 14750 kPa, x1 = 0.3979
[23] = 323.26 K, 20040 kPa, x1 = 0.3979
[24] = 323.26 K, 40050 kPa, x1 = 0.3979
[25] = 323.32 K, 10010 kPa, x1 = 0.2021
[26] = 323.32 K, 20100 kPa, x1 = 0.2021
[27] = 323.32 K, 39150 kPa, x1 = 0.2021
[28] = 373.2 K, 10050 kPa, x1 = 0.2021
[29] = 373.2 K, 12610 kPa, x1 = 0.2021
[30] = 373.2 K, 20020 kPa, x1 = 0.2021
[31] = 373.2 K, 40260 kPa, x1 = 0.2021
[32] = 373.2 K, 60350 kPa, x1 = 0.2021
[33] = 373.2 K, 65050 kPa, x1 = 0.2021
[34] = 373.26 K, 10000 kPa, x1 = 0.1013
[35] = 373.26 K, 20170 kPa, x1 = 0.1013
[36] = 373.26 K, 40110 kPa, x1 = 0.1013
[37] = 373.26 K, 60080 kPa, x1 = 0.1013
[38] = 373.26 K, 80130 kPa, x1 = 0.1013
[39] = 373.41 K, 24090 kPa, x1 = 0.2976
[40] = 373.41 K, 24100 kPa, x1 = 0.2976
[41] = 373.41 K, 40140 kPa, x1 = 0.2976
[42] = 373.41 K, 60030 kPa, x1 = 0.2976
[43] = 373.41 K, 80100 kPa, x1 = 0.2976
[44] = 373.47 K, 16680 kPa, x1 = 0.3979
[45] = 373.47 K, 16740 kPa, x1 = 0.3979

**Q.** Which mass density [1] does the source give for `C` [methane] + CCCCCCCCCCCCCCCC here?
**A.** The mass density was 781.6 ± 2.4 kg/m3.

**Q.** What about the viscosity [1] of the same molecule?
**A.** Its viscosity is 3.304 ± 0.07 mPa·s.

**Q.** What about the mass density [2] of the same molecule?
**A.** Its mass density is 786.5 ± 2.4 kg/m3.

**Q.** What about the viscosity [2] of the same molecule?
**A.** The viscosity was 3.687 ± 0.078 mPa·s.

**Q.** What about the mass density [3] of the same molecule?
**A.** Its mass density is 780.7 ± 2.3 kg/m3.

**Q.** And the viscosity [3]?
**A.** Its viscosity is 3.712 ± 0.08 mPa·s.

**Q.** What about the mass density [4] of the same molecule?
**A.** The mass density was 786 ± 2.4 kg/m3.

**Q.** And the viscosity [4]?
**A.** The viscosity was 4.196 ± 0.088 mPa·s.

**Q.** What about the mass density [5] of the same molecule?
**A.** The mass density was 775.4 ± 2.3 kg/m3.

**Q.** What about the viscosity [5] of the same molecule?
**A.** Its viscosity is 3.308 ± 0.071 mPa·s.

**Q.** And the mass density [6]?
**A.** The mass density was 781.3 ± 2.4 kg/m3.

**Q.** And the viscosity [6]?
**A.** The viscosity was 3.742 ± 0.079 mPa·s.

**Q.** And the mass density [7]?
**A.** The mass density was 781.1 ± 2.4 kg/m3.

**Q.** And the viscosity [7]?
**A.** The viscosity was 3.321 ± 0.071 mPa·s.

**Q.** And the mass density [8]?
**A.** The mass density was 784.6 ± 2.4 kg/m3.

**Q.** What about the viscosity [8] of the same molecule?
**A.** Its viscosity is 3.548 ± 0.075 mPa·s.

**Q.** And the mass density [9]?
**A.** Its mass density is 791 ± 2.4 kg/m3.

**Q.** And the viscosity [9]?
**A.** Its viscosity is 3.938 ± 0.083 mPa·s.

**Q.** And the mass density [10]?
**A.** Its mass density is 765.4 ± 2.3 kg/m3.

**Q.** What about the viscosity [10] of the same molecule?
**A.** Its viscosity is 1.993 ± 0.042 mPa·s.

**Q.** And the mass density [11]?
**A.** Its mass density is 771.2 ± 2.3 kg/m3.

**Q.** And the viscosity [11]?
**A.** The viscosity was 2.205 ± 0.047 mPa·s.

**Q.** What about the mass density [12] of the same molecule?
**A.** Its mass density is 783.4 ± 2.4 kg/m3.

**Q.** What about the viscosity [12] of the same molecule?
**A.** The viscosity was 2.69 ± 0.057 mPa·s.

**Q.** And the mass density [13]?
**A.** The mass density was 791.6 ± 2.4 kg/m3.

**Q.** And the viscosity [13]?
**A.** The viscosity was 3.255 ± 0.068 mPa·s.

**Q.** And the mass density [14]?
**A.** The mass density was 801.7 ± 2.4 kg/m3.

**Q.** And the viscosity [14]?
**A.** The viscosity was 3.927 ± 0.082 mPa·s.

**Q.** And the mass density [15]?
**A.** Its mass density is 769.6 ± 2.6 kg/m3.

**Q.** And the viscosity [15]?
**A.** The viscosity was 2.151 ± 0.047 mPa·s.

**Q.** And the mass density [16]?
**A.** The mass density was 770.4 ± 2.4 kg/m3.

**Q.** And the viscosity [16]?
**A.** The viscosity was 2.147 ± 0.12 mPa·s.

**Q.** And the mass density [17]?
**A.** The mass density was 770.3 ± 2.4 kg/m3.

**Q.** And the viscosity [17]?
**A.** The viscosity was 2.146 ± 0.12 mPa·s.

**Q.** What about the mass density [18] of the same molecule?
**A.** Its mass density is 781.5 ± 2.4 kg/m3.

**Q.** What about the viscosity [18] of the same molecule?
**A.** Its viscosity is 2.597 ± 0.055 mPa·s.

**Q.** And the mass density [19]?
**A.** The mass density was 791.5 ± 2.4 kg/m3.

**Q.** What about the viscosity [19] of the same molecule?
**A.** The viscosity was 3.162 ± 0.067 mPa·s.

**Q.** What about the mass density [20] of the same molecule?
**A.** The mass density was 800.3 ± 2.4 kg/m3.

**Q.** And the viscosity [20]?
**A.** Its viscosity is 3.859 ± 0.081 mPa·s.

**Q.** What about the mass density [21] of the same molecule?
**A.** Its mass density is 763.7 ± 2.3 kg/m3.

**Q.** And the viscosity [21]?
**A.** Its viscosity is 1.887 ± 0.043 mPa·s.

**Q.** What about the mass density [22] of the same molecule?
**A.** Its mass density is 763.9 ± 2.3 kg/m3.

**Q.** And the viscosity [22]?
**A.** Its viscosity is 1.918 ± 0.044 mPa·s.

**Q.** And the mass density [23]?
**A.** Its mass density is 766.5 ± 2.3 kg/m3.

**Q.** What about the viscosity [23] of the same molecule?
**A.** The viscosity was 2.058 ± 0.044 mPa·s.

**Q.** And the mass density [24]?
**A.** The mass density was 778.7 ± 2.4 kg/m3.

**Q.** And the viscosity [24]?
**A.** Its viscosity is 2.56 ± 0.054 mPa·s.

**Q.** What about the mass density [25] of the same molecule?
**A.** The mass density was 756.6 ± 2.3 kg/m3.

**Q.** What about the viscosity [25] of the same molecule?
**A.** Its viscosity is 1.901 ± 0.04 mPa·s.

**Q.** What about the mass density [26] of the same molecule?
**A.** The mass density was 763.2 ± 2.3 kg/m3.

**Q.** What about the viscosity [26] of the same molecule?
**A.** Its viscosity is 2.147 ± 0.045 mPa·s.

**Q.** And the mass density [27]?
**A.** Its mass density is 775.8 ± 2.4 kg/m3.

**Q.** And the viscosity [27]?
**A.** Its viscosity is 2.576 ± 0.054 mPa·s.

**Q.** What about the mass density [28] of the same molecule?
**A.** The mass density was 721.1 ± 2.5 kg/m3.

**Q.** And the viscosity [28]?
**A.** Its viscosity is 0.926 ± 0.036 mPa·s.

**Q.** What about the mass density [29] of the same molecule?
**A.** Its mass density is 723.4 ± 2.2 kg/m3.

**Q.** And the viscosity [29]?
**A.** Its viscosity is 0.951 ± 0.021 mPa·s.

**Q.** And the mass density [30]?
**A.** The mass density was 729.5 ± 2.2 kg/m3.

**Q.** And the viscosity [30]?
**A.** The viscosity was 1.037 ± 0.022 mPa·s.

**Q.** And the mass density [31]?
**A.** Its mass density is 744.4 ± 2.3 kg/m3.

**Q.** What about the viscosity [31] of the same molecule?
**A.** The viscosity was 1.27 ± 0.027 mPa·s.

**Q.** What about the mass density [32] of the same molecule?
**A.** Its mass density is 757.1 ± 2.3 kg/m3.

**Q.** What about the viscosity [32] of the same molecule?
**A.** The viscosity was 1.521 ± 0.032 mPa·s.

**Q.** And the mass density [33]?
**A.** The mass density was 759.8 ± 2.3 kg/m3.

**Q.** What about the viscosity [33] of the same molecule?
**A.** Its viscosity is 1.586 ± 0.034 mPa·s.

**Q.** And the mass density [34]?
**A.** The mass density was 732.3 ± 2.2 kg/m3.

**Q.** What about the viscosity [34] of the same molecule?
**A.** The viscosity was 0.967 ± 0.022 mPa·s.

**Q.** And the mass density [35]?
**A.** Its mass density is 740.6 ± 2.2 kg/m3.

**Q.** What about the viscosity [35] of the same molecule?
**A.** The viscosity was 1.112 ± 0.024 mPa·s.

**Q.** And the mass density [36]?
**A.** The mass density was 754.5 ± 2.3 kg/m3.

**Q.** What about the viscosity [36] of the same molecule?
**A.** Its viscosity is 1.334 ± 0.029 mPa·s.

**Q.** And the mass density [37]?
**A.** Its mass density is 767.4 ± 2.3 kg/m3.

**Q.** And the viscosity [37]?
**A.** The viscosity was 1.571 ± 0.034 mPa·s.

**Q.** And the mass density [38]?
**A.** The mass density was 777.3 ± 2.3 kg/m3.

**Q.** What about the viscosity [38] of the same molecule?
**A.** Its viscosity is 1.897 ± 0.043 mPa·s.

**Q.** And the mass density [39]?
**A.** Its mass density is 738.5 ± 2.2 kg/m3.

**Q.** And the viscosity [39]?
**A.** Its viscosity is 1.04 ± 0.022 mPa·s.

**Q.** What about the mass density [40] of the same molecule?
**A.** Its mass density is 738.2 ± 2.2 kg/m3.

**Q.** What about the viscosity [40] of the same molecule?
**A.** The viscosity was 1.038 ± 0.022 mPa·s.

**Q.** What about the mass density [41] of the same molecule?
**A.** The mass density was 749.9 ± 2.3 kg/m3.

**Q.** And the viscosity [41]?
**A.** Its viscosity is 1.222 ± 0.026 mPa·s.

**Q.** What about the mass density [42] of the same molecule?
**A.** The mass density was 762.2 ± 2.3 kg/m3.

**Q.** What about the viscosity [42] of the same molecule?
**A.** Its viscosity is 1.465 ± 0.031 mPa·s.

**Q.** And the mass density [43]?
**A.** The mass density was 773.7 ± 2.3 kg/m3.

**Q.** What about the viscosity [43] of the same molecule?
**A.** The viscosity was 1.749 ± 0.04 mPa·s.

**Q.** And the mass density [44]?
**A.** The mass density was 730.1 ± 2.2 kg/m3.

**Q.** What about the viscosity [44] of the same molecule?
**A.** Its viscosity is 0.921 ± 0.031 mPa·s.

**Q.** And the mass density [45]?
**A.** Its mass density is 729.9 ± 2.2 kg/m3.

**Q.** What about the viscosity [45] of the same molecule?
**A.** The viscosity was 0.942 ± 0.032 mPa·s.

Source: the NIST ThermoML archive (doi:10.1021/acs.jced.6b00750)
